# Measured values from patent US12104173B2, “Method for differentiation of human pluripotent stem cell lines in suspension culture” (AGENCY FOR SCIENCE, TECHNOLOGY AND RESEARCH, priority 2018, dated 2024).
# Key:
# Type in all cases: cell-based, human
# [1] = system: D9 O-neg hiPSC line; experiment: CHIR dose: hematopoietic/erythroid differentiation of agitated hPSC-MC aggregates; details: optimal dose of CHIR-99021, day 4
# [2] = system: IMR90 hiPSC line; experiment: as above; details: optimal dose of CHIR-99021, day 4
# [3] = system: O-neg hiPSC line (D5) expanded in agitated microcarrier cultures; experiment: DoE multifactorial analysis of KDR+ cells, O-neg hiPSC; details: CHIR exposure for 24 hours, 4 days post differentiation
# Text: (B) Plot of KDR levels (%) for respective conditions tested (day 4 post differentiation). Conditions 27, 28 and 29 are triplicates of the same condition tested. […] Act=Activin A; CHI=CHIR-99021 for 24 hr, CH2=CHIR-99021 from 24-48 hr; BMP=BMP4. Computed P-values are indicated below the chart.
# These findings were also confirmed using an O-neg hiPSC line (D5) expanded in agitated microcarrier cultures (FIG. 6). […] In summary, from the Design of experiment analysis, it was established that a BMP4 dose of 10 to 50 ng/ml, Activin A dose of 25 to 50 ng/ml and exposure of CHIR for 24 hours at a dose of 6 to 12 μM would be efficient for the generation of KDR+ cells.
# Design of experiments (DoE) using a resolution IV Fractional Factorial Design was performed using the MODDE software (Sartorius Stedim Biotech, Germany) to evaluate initial BMP4, Activin A and CHIR-99021, doses and duration of exposure for their effects on the following response factors: induction of KDR+ cells 4 days post mesoderm induction or total hematopoietic precursors generated 2 weeks post differentiation. […]
# [4] = system: hES-3 microcarrier aggregates; experiment: capillary Western blot of Wnt/β-catenin signalling proteins; details: hES-3-MC; upon induction with CHIR (15 μM CHIR, 30 ng/ml BMP4, 40 ng/ml Activin A)
# Procedure: Day 7 hES-3-MC aggregates from static or agitation conditions were subjected to differentiation using BMP4 protocol (50 ng/ml BMP4) or optimized CHIR-based protocol (30 ng/ml BMP4, 40 ng/ml Activin A and 15 μM CHIR). Cell lysates before start of differentiation (0 hours) and 24 hours after onset of differentiation were analysed for proteins involved in Wnt/β-catenin signalling (T-BRA, TCF-1 and LEF-1) and BMP4 signalling (SMAD7, SMAD1 and phospho SMAD1/5) using an automated Capillary Western Blot system (Peggy Sue). All samples including GAPDH as a protein loading control were run in parallel. (A) is an image showing digitalized chemiluminescence signals represented as band intensities. Corresponding molecular weight of detected proteins are indicated. […] Graphical representation of chemiluminescence intensity of proteins (expressed as a percentage of GAPDH expression) involved in (B) Wnt/β-catenin signalling and (C) BMP4 signalling. […]
# Capillary Western blot was performed using a fully automated system, Peggy Sue (Proteinsimple, R&D, USA). Proteins were separated, detected and quantified according to manufacturer's protocol (www.proteinsimple.com) based on size separation (12-230 kDa). […] (all from Cell Signaling Technology)[1:50 diluted SMAD7 (Sigma-Aldrich)] followed by horseradish peroxidase conjugated secondary antibody and detected with Luminol/Peroxidase substrate. […]
structure (smiles),measurement,setting,value
"Cc1c[nH]c(-c2cnc(NCCNc3ccc(C#N)cn3)nc2-c2ccc(Cl)cc2Cl)n1 [CHIR-99021, 6-[[2-[[4-(2,4-Dichlorophenyl)-5-(5-methyl-1H-imidazol-2-yl)-2-pyrimidinyl]amino]ethyl]amino]-3-pyridinecarbonitrile]",Mesoderm induction % KDR+ PDGFRα−,[1],20.9%
same,Mesoderm induction % KDR+ PDGFRα−,[2],14.2%
same,effect of factor on KDR+ cells (DoE),[3],significant factors for increased KDR+ cells
same,"Wnt/β-catenin signalling proteins TCF-1, LEF-1 and T-BRA",[4],detected as early as 24 hours
